According to ChEMBL document CHEMBL1141448, “Curcumin induces high levels of topoisomerase I- and II-DNA complexes in K562 leukemia cells” (J Nat Prod, 2007):
Calls of active or inactive are those of the source. The rule behind the calls is not given here.

What was measured:
K562 [1] = assay: Cytotoxicity against human K562 cells after 5 days by XTT assay; assay type: functional, cell-based; conditions: K562, 120 h
K562 [2] = assay: Binding affinity to topoisomerase 2 in human K562 cells assessed as increase in […]-induced topoisomerase 2-DNA complex at 20-70 uM after 24 hrs by TARDIS assay; assay type: cell-based
K562 [3] = assay: Binding affinity to topoisomerase 2 in human K562 cells assessed as increase in etoposide-induced topoisomerase 2-DNA complex at 20-70 uM after 24 hrs by TARDIS assay; assay type: cell-based
K562 [4] = assay: Binding affinity to topoisomerase 2 in human K562 cells assessed as stability of topoisomerase 2-DNA complex at 70 uM after 48 hrs by TARDIS assay; assay type: cell-based
[5] = molecular target: T1, DNA topoisomerase 1 (Homo sapiens) (UniProt P11387); assay: Binding affinity to topoisomerase 1 in human K562 cells assessed as stability of topoisomerase 1-DNA complex at 70 uM after 48 hrs by TARDIS assay; assay type: cell-based
T1 sequence (whole entry): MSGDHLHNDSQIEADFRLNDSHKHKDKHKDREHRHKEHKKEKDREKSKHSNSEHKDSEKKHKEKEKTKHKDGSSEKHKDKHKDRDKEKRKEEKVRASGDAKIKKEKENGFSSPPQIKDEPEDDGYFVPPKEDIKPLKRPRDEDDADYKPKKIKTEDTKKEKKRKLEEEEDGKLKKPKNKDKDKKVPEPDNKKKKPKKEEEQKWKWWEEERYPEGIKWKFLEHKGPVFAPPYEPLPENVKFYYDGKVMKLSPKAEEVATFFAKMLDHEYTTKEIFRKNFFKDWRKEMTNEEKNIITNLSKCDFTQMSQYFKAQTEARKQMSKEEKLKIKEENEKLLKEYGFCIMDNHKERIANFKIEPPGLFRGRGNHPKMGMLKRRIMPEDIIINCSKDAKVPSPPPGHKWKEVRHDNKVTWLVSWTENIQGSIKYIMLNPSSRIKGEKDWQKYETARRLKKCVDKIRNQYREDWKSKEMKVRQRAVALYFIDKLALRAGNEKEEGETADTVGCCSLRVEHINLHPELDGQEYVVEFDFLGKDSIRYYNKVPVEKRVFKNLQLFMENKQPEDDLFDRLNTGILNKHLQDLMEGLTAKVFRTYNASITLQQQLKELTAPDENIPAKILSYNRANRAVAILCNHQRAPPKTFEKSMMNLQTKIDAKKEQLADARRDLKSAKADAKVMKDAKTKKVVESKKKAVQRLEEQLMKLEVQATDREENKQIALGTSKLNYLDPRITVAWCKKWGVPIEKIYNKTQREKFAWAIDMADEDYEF

[6] = Reversal of drug-induced topoisomerase 2-DNA complex in presence of N-acetyl cysteine at 70 uM after 24 hrs
[7] = molecular target: T1, DNA topoisomerase 1 (Homo sapiens); assay: Reversal of drug-induced topoisomerase 1-DNA complex in presence of N-acetyl cysteine at 70 uM after 24 hrs

| Compound | IC50 (K562 [1]) [µM] | further results |
| --- | --- | --- |
| CC(=O)[C@]1(O)Cc2c(O)c3c(c(O)c2[C@@H](O[C@H]2C[C@H](N)[C@H](O)[C@H](C)O2)C1)C(=O)c1ccccc1C3=O [IDARUBICIN] | 0.012 | – |
| COc1cc(NS(C)(=O)=O)ccc1Nc1c2ccccc2nc2ccccc12 [AMSACRINE] | 0.023 | – |
| O=C(CC(=O)c1ccccc1)c1ccccc1 [DIBENZOYLMETHANE] | 30.9 | – |
| O=C1c2c(O)ccc(O)c2C(=O)c2c(NCCNCCO)ccc(NCCNCCO)c21 [MITOXANTRONE] | 0.0026 | – |
| CC[C@@]1(O)C(=O)OCc2c1cc1n(c2=O)Cc2cc3ccccc3nc2-1 [CAMPTOTHECIN] | 0.04 | – |
| COc1cc([C@@H]2c3cc4c(cc3[C@@H](O[C@@H]3O[C@@H]5CO[C@@H](C)O[C@H]5[C@H](O)[C@H]3O)[C@H]3COC(=O)[C@H]23)OCO4)cc(OC)c1O [ETOPOSIDE] | 0.32 | – |
| COc1cc(/C=C/C(=O)O)ccc1O [FERULATE] | > 1000 | – |
| COc1cc(/C=C/C(=O)CC(=O)/C=C/c2ccc(O)c(OC)c2)ccc1O [CURCUMIN] | 6.81 | Activity (K562 [2]): Active; Activity (K562 [3]): Active; Activity (K562 [4]): Active; Activity [5]: Active; Activity [6]: Active; Activity [7]: Active |
